Experimental data as given in ChEMBL document CHEMBL4680105, “Discovery of Benzenesulfonamide Derivatives as Carbonic Anhydrase Inhibitors with Effective Anticonvulsant Action: Design, Synthesis, and Pharmacological Evaluation” (J Med Chem, 2018).

Assays:
[1] = Hepatotoxicity in Wistar rat assessed as SGPT level at 100 mg/kg, po for 14 days (reference value: 59.2 +/- 12.5 U/L) by liver function test; assay type: toxicity, organism-based; settings: in vivo, 336 h, time 14 day
[2] = Hematological toxicity in Wistar rat assessed as TLC level at 100 mg/kg, po for 14 days (reference value: 6.3 +/- 1.4 10^3/ml); assay type: organism-based; settings: in vivo, 336 h, time 14 day
[3] = Renal toxicity in Wistar rat assessed as K+ level at 100 mg/kg, po for 14 days (reference value: 4.82 +/- 0.3 mequiv/L) by kidney function test; assay type: organism-based; settings: in vivo, 336 h, time 14 day
[4] = Neurotoxicity in Swiss Albino mouse by rotarod test at 30 mg/kg. ip measured up to 120 mins by rotarod test; assay type: toxicity, organism-based; settings: in vivo, 2 h
[5] = tested on: Mus musculus; test: Anticonvulsant activity in Swiss Albino mouse model of maximal electroshock-induced seizure assessed as protection against seizure by measuring suppression of hind limb extension at 30 mg/kg, ip pretreated for 30 mins before seizure stimulation and measured after 4 hrs by MES test relative to control; assay type: functional; settings: time 4.5 hrs
[6] = Renal toxicity in Wistar rat assessed as blood urea level at 100 mg/kg, po for 14 days (Rvb =34.7 +/- 9.9 mg/dL) by kidney function test; assay type: organism-based; settings: in vivo, 336 h, time 14 day
[7] = Hematological toxicity in Wistar rat assessed as monocytes level at 100 mg/kg, po for 14 days (reference value: 2.5 +/- 1.5%); assay type: organism-based; settings: in vivo, 336 h, time 14 day
[8] = Hepatotoxicity in Wistar rat assessed as total protein level at 100 mg/kg, po for 14 days (reference value: 6.35 +/- 0.46 g/dL) by liver function test; assay type: toxicity, organism-based; settings: in vivo, 336 h, time 14 day
[9] = tested on: Mus musculus; test: Anticonvulsant activity in Swiss Albino mouse model of maximal electroshock-induced seizure assessed as protection against seizure by measuring suppression of hind limb extension at 30 mg/kg, po pretreated for 30 mins before seizure stimulation and measured after 0.5 hrs by MES test relative to control; assay type: functional; settings: time 60 min, 1 h
[10] = tested on: Mus musculus; test: Anticonvulsant activity in Swiss Albino mouse assessed as protection against seizure at 30 mg/kg, ip measured after 0.5 hrs by sc-PTZ seizure test relative to control; assay type: functional
[11] = Sub-acute toxicity in Wistar rat assessed as mortality level at 100 mg/kg, po for 14 days; assay type: organism-based; settings: in vivo, 336 h, time 14 day
[12] = Hematological toxicity in Wistar rat assessed as Hb level at 100 mg/kg, po for 14 days (reference value: 12.7 +/- 1.5 g/dL); assay type: organism-based; settings: in vivo, 336 h, time 14 day
[13] = Sub-acute toxicity in Wistar rat at 100 mg/kg, po for 14 days; assay type: organism-based; settings: in vivo, 336 h, time 14 day
[14] = Renal toxicity in Wistar rat assessed as Na+ level at 100 mg/kg, po for 14 days (reference value: 144 +/- 2.8 mequiv/L) by kidney function test; assay type: organism-based; settings: in vivo, 336 h, time 14 day
[15] = Renal toxicity in Wistar rat assessed as Cl- level at 100 mg/kg, po for 14 days (reference value: 105.5 +/- 6.5 mequiv/L) by kidney function test; assay type: organism-based; settings: in vivo, 336 h, time 14 day
[16] = tested on: Mus musculus; test: Anticonvulsant activity in Swiss Albino mouse model of maximal electroshock-induced seizure assessed as protection against seizure by measuring suppression of hind limb extension at 30 mg/kg, ip pretreated for 30 mins before seizure stimulation and measured after 2 hrs by MES test relative to control; assay type: functional; settings: time 2.5 hrs
[17] = Renal toxicity in Wistar rat assessed as creatinine level at 100 mg/kg, po for 14 days (reference value: 0.75 +/- 0.1 mg/dL) by kidney function test; assay type: organism-based; settings: in vivo, 336 h, time 14 day
[18] = tested on: Mus musculus; test: Anticonvulsant activity in Swiss Albino mouse model of maximal electroshock-induced seizure assessed as protection against seizure by measuring suppression of hind limb extension at 30 mg/kg, ip pretreated for 30 mins before seizure stimulation and measured after 3 hrs by MES test relative to control; assay type: functional; settings: time 3.5 hrs
[19] = Hematological toxicity in Wistar rat assessed as neutrophils level at 100 mg/kg, po for 14 days (reference value: 20.8 +/- 5.8%); assay type: organism-based; settings: in vivo, 336 h, time 14 day
[20] = tested on: Mus musculus; test: Anticonvulsant activity in Swiss Albino mouse model of maximal electroshock-induced seizure assessed as protection against seizure by measuring suppression of hind limb extension at 30 mg/kg, ip pretreated for 30 mins before seizure stimulation and measured after 0.5 hrs by MES test relative to control; assay type: functional; settings: time 60 min, 1 h
[21] = tested on: Mus musculus; test: Anticonvulsant activity in Swiss Albino mouse model of maximal electroshock-induced seizure assessed as protection against seizure by measuring suppression of hind limb extension at 30 mg/kg, po pretreated for 30 mins before seizure stimulation and measured after 1 hrs by MES test relative to control; assay type: functional; settings: time 1.5 hrs
[22] = Hepatotoxicity in Wistar rat assessed as SGOT level at 100 mg/kg, po for 14 days (reference value: 59.9 +/- 11 U/L) by liver function test; assay type: toxicity, organism-based; settings: in vivo, 336 h, time 14 day
[23] = Hematological toxicity in Wistar rat assessed as platelet count level at 100 mg/kg, po for 14 days (reference value: 698 +/- 156 10^3/mm3); assay type: organism-based; settings: in vivo, 336 h, time 14 day
[24] = Hematological toxicity in Wistar rat assessed as basophils level at 100 mg/kg, po for 14 days (reference value: 0.3 +/- 0.5%); assay type: organism-based; settings: in vivo, 336 h, time 14 day
[25] = tested on: Mus musculus; test: Anticonvulsant activity in Swiss Albino mouse model of maximal electroshock-induced seizure assessed as protection against seizure by measuring suppression of hind limb extension at 30 mg/kg, ip pretreated for 30 mins before seizure stimulation and measured after 1 hrs by MES test relative to control; assay type: functional; settings: time 1.5 hrs
[26] = Hematological toxicity in Wistar rat assessed as RBC level at 100 mg/kg, po for 14 days (reference value: 7.9 +/- 0.94 10^6/mm3); assay type: organism-based; settings: in vivo, 336 h, time 14 day
[27] = tested on: Mus musculus; test: Anticonvulsant activity in Swiss Albino mouse model of maximal electroshock-induced seizure assessed as protection against seizure by measuring suppression of hind limb extension at 100 mg/kg, ip pretreated for 30 mins before seizure stimulation and measured after 0.5 hrs by MES test relative to control; assay type: functional; settings: time 60 min, 1 h
[28] = Renal toxicity in Wistar rat assessed as phosphorus level at 100 mg/kg, po for 14 days (reference value: 9.4 +/- 2.0 mg/dL) by kidney function test; assay type: organism-based; settings: in vivo, 336 h, time 14 day
[29] = Hepatotoxicity in Wistar rat assessed as total bilirubin level at 100 mg/kg, po for 14 days (reference value: 0.32 +/- 0.09 mg/dL) by liver function test; assay type: toxicity, organism-based; settings: in vivo, 336 h, time 14 day
[30] = Hematological toxicity in Wistar rat assessed as eosinophils level at 100 mg/kg, po for 14 days (reference value: 2.3 +/- 1.2%); assay type: organism-based; settings: in vivo, 336 h, time 14 day
[31] = Hematological toxicity in Wistar rat assessed as lymphocytes level at 100 mg/kg, po for 14 days (reference value: 74.6 +/- 4.3%); assay type: organism-based; settings: in vivo, 336 h, time 14 day
[32] = tested on: Mus musculus; test: Anticonvulsant activity in Swiss Albino mouse model of maximal electroshock-induced seizure assessed as protection against seizure by measuring suppression of hind limb extension at 30 mg/kg, po pretreated for 30 mins before seizure stimulation and measured after 0.25 hrs by MES test relative to control; assay type: functional; settings: 0.5 h
[33] = tested on: Mus musculus; test: Anticonvulsant activity in Swiss Albino mouse assessed as protection against seizure at 30 mg/kg, ip measured after 3 hrs by sc-PTZ seizure test relative to control; assay type: functional

## NS(=O)(=O)c1ccc(CNC(=O)CCN2CCN(Cc3ccc4c(c3)OCO4)CC2)cc1
[1]
  Activity: 52.9 U/L
[2]
  Activity: 7.5 10^3/ml
[3]
  Activity: 4.9 mEq/L
[4]
  Activity: Non-Toxic
[5]
  Activity: 70%
[6]
  Activity: 39.8 mg/dL
[7]
  Activity: 2.3%
[8]
  Activity: 6.2 g/dL
[9]
  Activity: 50%
[10]
  Activity: 83%
[11]
  Activity: Non-Toxic
[12]
  Activity: 12.6 g/dL
[13]
  Activity: Non-Toxic
[14]
  Activity: 144 mEq/L
[15]
  Activity: 104.3 mEq/L
[16]
  Activity: 60%
[17]
  Activity: 0.75 mg/dL
[18]
  Activity: 67%
[19]
  Activity: 22.3%
[20]
  Activity: 67%
[21]
  Activity: 67%
[22]
  Activity: 64.2 U/L
[23]
  Activity: 662.3 10^3/mm3
[24]
  Activity: 0.16%
[25]
  Activity: 80%
[26]
  Activity: 7.7 10^6/mm3
[27]
  Activity: 83%
[28]
  Activity: 6.8 mg/dL
[29]
  Activity: 0.38 mg/dL
[30]
  Activity: 2.3%
[31]
  Activity: 74%
[32]
  Activity: 17%
[33]
  Activity: 67%
